Results taken from patent US9533987B2, “Heterocyclic derivates” (KALVISTA PHARMACEUTICALS LIMITED, priority 2013, dated 2017).

Experiments:
Format in all cases: biochemical
Human plasma kallikrein = Human plasma kallikrein (Homo sapiens (Human), UniProt P03952); assay: Determination of the IC50 for plasma kallikrein (fluorogenic substrate H-DPro-Phe-Arg-AFC); conditions: 37° C., read-out: IC50 (human PKaI)
Procedure: Determination of the IC50 for Plasma Kallikrein
(§1) Human plasma kallikrein (Protogen) was incubated at 37° C. with the fluorogenic substrate H-DPro-Phe-Arg-AFC and various concentrations of the test compound. Residual enzyme activity (initial rate of reaction) was determined by measuring the change in […] at 410 nm and the IC50 value for the test compound was determined.

Human KLK1 = Human KLK1 (Homo sapiens (Human), UniProt P06870); assay: Determination of the IC50 for KLK1 (fluorogenic substrate H-DVal-Leu-Arg-AFC); conditions: 37° C.
Human KLK1, sequence (P06870 25-262): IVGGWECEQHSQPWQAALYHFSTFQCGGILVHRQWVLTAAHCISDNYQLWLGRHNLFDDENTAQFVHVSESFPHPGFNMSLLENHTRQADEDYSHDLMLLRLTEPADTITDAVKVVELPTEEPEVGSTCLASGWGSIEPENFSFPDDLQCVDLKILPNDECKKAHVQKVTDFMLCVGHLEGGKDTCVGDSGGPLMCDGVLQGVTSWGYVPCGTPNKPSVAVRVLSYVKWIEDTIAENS
Procedure: Determination of the IC50 for KLK1
as §1, with “KLK1 (Callbiochem)” for “plasma kallikrein (Protogen)”, “H-DVal-Leu-Arg-AFC” for “H-DPro-Phe-Arg-AFC”

Factor XIIa = Factor XIIa (Homo sapiens (Human), UniProt P00748); assay: Determination of enzyme selectivity, Factor XIIa; conditions: substrate at Km concentration
Factor XIIa, sequence (P00748 373-615): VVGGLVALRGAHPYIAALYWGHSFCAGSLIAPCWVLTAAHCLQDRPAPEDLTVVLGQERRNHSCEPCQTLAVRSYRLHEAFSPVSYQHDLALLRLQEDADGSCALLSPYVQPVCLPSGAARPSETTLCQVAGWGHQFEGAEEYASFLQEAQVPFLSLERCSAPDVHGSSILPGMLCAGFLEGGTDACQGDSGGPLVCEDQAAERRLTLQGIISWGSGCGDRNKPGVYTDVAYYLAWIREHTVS
Procedure: Determination of Enzyme Selectivity
Human serine protease enzymes plasmin, thrombin, trypsin, Factor Xa and Factor XIIa were assayed for enzymatic activity using an appropriate fluorogenic substrate. Protease activity was measured by monitoring the accumulation of liberated fluorescence from the substrate over 5 minutes. The linear rate of fluorescence increase per minute was expressed as percentage (%) activity. The Km for the cleavage of each substrate was determined by standard transformation of the Michaelis-Menten equation.

Human plasma kallikrein, sequence (P03952 391-638): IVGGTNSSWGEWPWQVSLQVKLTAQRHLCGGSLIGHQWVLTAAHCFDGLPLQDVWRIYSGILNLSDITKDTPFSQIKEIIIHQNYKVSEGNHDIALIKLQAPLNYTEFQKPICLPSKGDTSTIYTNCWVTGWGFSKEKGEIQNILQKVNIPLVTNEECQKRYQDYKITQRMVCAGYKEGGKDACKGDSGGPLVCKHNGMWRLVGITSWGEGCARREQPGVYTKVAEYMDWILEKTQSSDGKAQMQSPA
Human plasma kallikrein, sequence (P03952 20-390 partner): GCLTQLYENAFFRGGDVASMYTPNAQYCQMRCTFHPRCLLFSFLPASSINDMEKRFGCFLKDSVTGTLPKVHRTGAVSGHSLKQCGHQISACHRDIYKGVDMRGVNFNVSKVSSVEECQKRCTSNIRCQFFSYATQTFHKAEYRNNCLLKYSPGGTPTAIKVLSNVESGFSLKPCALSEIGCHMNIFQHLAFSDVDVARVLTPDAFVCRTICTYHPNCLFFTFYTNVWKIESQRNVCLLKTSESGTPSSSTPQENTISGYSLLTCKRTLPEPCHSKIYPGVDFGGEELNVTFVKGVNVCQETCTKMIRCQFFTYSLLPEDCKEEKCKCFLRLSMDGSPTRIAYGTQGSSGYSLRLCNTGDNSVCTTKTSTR

Compound | IC50 (Human plasma kallikrein) | IC50 (Human KLK1) | IC50 (Factor XIIa)
Cc1cnn(Cc2ccc(Cn3nc(C)c(C(=O)NCc4ccc5c(N)nccc5c4)c3C)cc2)c1 [Example 34, 3,5-Dimethyl-1-[4-(4-methyl-pyrazol-1-ylmethyl)-benzyl]-1H-pyrazole-4-carboxylic acid (1-amino-isoquinolin-6-ylmethyl)-amide] | 0.142 µM | 18.2 µM | > 40000 nM
Cc1cnn(Cc2ccc(Cn3cc(C(=O)NCc4ccc5c(N)nccc5c4)c(-c4ccccc4)n3)cc2)c1 [Example 35, 1-[4-(4-Methyl-pyrazol-1-ylmethyl)-benzyl]-3-phenyl-1H-pyrazole-4-carboxylic acid (1-amino-isoquinolin-6-ylmethyl)-amide] | 0.00368 µM | > 10 µM | > 10000 nM
Cc1cnn(Cc2ccc(Cn3cc(C(=O)NCc4ccc5c(N)nccc5c4)c(N)n3)cc2)c1 [Example 37, 3-Amino-1-[4-(4-methyl-pyrazol-1-ylmethyl)-benzyl]-1H-pyrazole-4-carboxylic acid (1-amino-isoquinolin-6-ylmethyl)-amide] | 0.00067 µM | 3.53 µM | > 10000 nM
COCc1nn(Cc2ccc(Cn3cc(C)cn3)cc2)cc1C(=O)NCc1ccc2c(N)nccc2c1 [Example 38, 3-Methoxymethyl-1-[4-(4-methyl-pyrazol-1-ylmethyl)-benzyl]-1H-pyrazole-4-carboxylic acid (1-amino-isoquinolin-6-ylmethyl)-amide] | 0.00127 µM | 7.84 µM | > 10000 nM
Cc1cnn(Cc2ccc(Cn3cc(C(=O)NCc4ccc5c(N)nccc5c4)c(C(F)F)n3)cc2)c1 [Example 39, 3-Difluoromethyl-1-[4-(4-methyl-pyrazol-1-ylmethyl)-benzyl]-1H-pyrazole-4-carboxylic acid (1-amino-isoquinolin-6-ylmethyl)-amide] | 0.00168 µM | 8.05 µM | > 10000 nM
Cc1cc(C(=O)NCc2ccc3c(N)nccc3c2)c(C)n1Cc1ccc(Cn2ccccc2=O)cc1 [Example 44, 2,5-Dimethyl-1-[4-(2-oxo-2H-pyridin-1-ylmethyl)-benzyl]-1H-pyrrole-3-carboxylic acid (1-amino-isoquinolin-6-ylmethyl)-amide] | 0.0039 µM | 7.09 µM | > 10000 nM
Nc1nccc2cc(CNC(=O)c3cnn(CCc4ccc5c(c4)OCCO5)c3)ccc12 [Example 45, 1-[2-(2,3-Dihydro-benzo[1,4]dioxin-6-yl)-ethyl]-1H-pyrazole-4-carboxylic acid (1-amino-isoquinolin-6-ylmethyl)-amide] | 3.06 µM | 18.6 µM | > 40000 nM
Nc1nccc2cc(CNC(=O)c3cnn(Cc4cccc(Oc5ccccc5)n4)c3)ccc12 [Example 47, 1-(6-Phenoxy-pyridin-2-ylmethyl)-1H-pyrazole-4-carboxylic acid (1-amino-isoquinolin-6-ylmethyl)-amide] | 2.03 µM | 15.8 µM | > 40000 nM
Nc1nccc2cc(CNC(=O)c3cnn(Cc4cccc(Oc5ncccc5F)c4)c3)ccc12 [Example 48, 1-[3-(3-Fluoro-pyridin-2-yloxy)-benzyl]-1H-pyrazole-4-carboxylic acid (1-amino-isoquinolin-6-ylmethyl)-amide] | 0.82 µM | 4.32 µM | > 40000 nM
Nc1nccc2cc(CNC(=O)c3cnn(Cc4ccc(Oc5ccccn5)cc4)c3)ccc12 [Example 49, 1-[4-(Pyridin-2-yloxy)-benzyl]-1H-pyrazole-4-carboxylic acid (1-amino-isoquinolin-6-ylmethyl)-amide] | 0.186 µM | 8.09 µM | > 40000 nM
Nc1nccc2cc(CNC(=O)c3cnn(Cc4ccc(COc5cccc(F)n5)cc4)c3)ccc12 [Example 50, 1-[4-(6-Fluoro-pyridin-2-yloxymethyl)-benzyl]-1H-pyrazole-4-carboxylic acid (1-amino-isoquinolin-6-ylmethyl)-amide] | 0.203 µM | > 40 µM | > 40000 nM
Nc1nccc2cc(CNC(=O)c3cnn(Cc4ccnc(N5CCCC5)c4)c3C(F)(F)F)ccc12 [Example 51, 1-(2-Pyrrolidin-1-yl-pyridin-4-ylmethyl)-5-trifluoromethyl-1H-pyrazole-4-carboxylic acid (1-amino-isoquinolin-6-ylmethyl)-amide] | 0.576 µM | 11.7 µM | > 40000 nM
Nc1nccc2cc(CNC(=O)c3cnn(Cc4cc5cc(OC(F)(F)F)ccc5[nH]4)c3)ccc12 [Example 52, 1-(5-Trifluoromethoxy-1H-indol-2-ylmethyl)-1H-pyrazole-4-carboxylic acid (1-amino-isoquinolin-6-ylmethyl)-amide] | 0.3 µM | > 40 µM | > 40000 nM
Nc1nccc2cc(CNC(=O)c3cn(Cc4ccnc(N5CCCC5)c4)nc3C(F)(F)F)ccc12 [Example 54, 1-(2-Pyrrolidin-1-yl-pyridin-4-ylmethyl)-3-trifluoromethyl-1H-pyrazole-4-carboxylic acid (1-amino-isoquinolin-6-ylmethyl)-amide] | 0.0467 µM | 18.2 µM | > 4000 nM
CCOc1ccc(Cn2cc(C(=O)NCc3ccc4c(N)nccc4c3)c(C(F)(F)F)n2)cn1 [Example 55, 1-(6-Ethoxy-pyridin-3-ylmethyl)-3-trifluoromethyl-1H-pyrazole-4-carboxylic acid (1-amino-isoquinolin-6-ylmethyl)-amide] | 0.0792 µM | 3.81 µM | > 10000 nM
Nc1nccc2cc(CNC(=O)c3cn(Cc4ccnc(N5CCC(F)(F)C5)c4)nc3C(F)(F)F)ccc12 [Example 56, 1-[2-(3,3-Difluoro-pyrrolidin-1-yl)-pyridin-4-ylmethyl]-3-trifluoromethyl-1H-pyrazole-4-carboxylic acid (1-amino-isoquinolin-6-ylmethyl)-amide] | 0.0718 µM | > 10 µM | > 10000 nM
Nc1nccc2cc(CNC(=O)c3cn(Cc4ccc(N5CCC(F)(F)C5)nc4)nc3C(F)(F)F)ccc12 [Example 57, 1-[6-(3,3-Difluoro-pyrrolidin-1-yl)-pyridin-3-ylmethyl]-3-trifluoromethyl-1H-pyrazole-4-carboxylic acid (1-amino-isoquinolin-6-ylmethyl)-amide] | 0.0149 µM | > 10 µM | > 10000 nM
C[C@H]1CCN(c2ccc(Cn3cc(C(=O)NCc4ccc5c(N)nccc5c4)c(C(F)(F)F)n3)cn2)C1 [Example 59, 1-[6-((S)-3-Methyl-pyrrolidin-1-yl)-pyridin-3-ylmethyl]-3-trifluoromethyl-1H-pyrazole-4-carboxylic acid (1-amino-isoquinolin-6-ylmethyl)-amide] | 0.00584 µM | 4 µM | > 1000 nM
Nc1nccc2cc(CNC(=O)c3cn(Cc4ccc(N5CC[C@H](F)C5)nc4)nc3C(F)(F)F)ccc12 [Example 60, 1-[6-((S)-3-Fluoro-pyrrolidin-1-yl)-pyridin-3-ylmethyl]-3-trifluoromethyl-1H-pyrazole-4-carboxylic acid (1-amino-isoquinolin-6-ylmethyl)-amide] | 0.00961 µM | 9.57 µM | > 10000 nM
Nc1nccc2cc(CNC(=O)c3cn(Cc4ccc(N5CC[C@@H](F)C5)nc4)nc3C(F)(F)F)ccc12 [Example 61, 1-[6-((R)-3-Fluoro-pyrrolidin-1-yl)-pyridin-3-ylmethyl]-3-trifluoromethyl-1H-pyrazole-4-carboxylic acid (1-amino-isoquinolin-6-ylmethyl)-amide] | 0.0181 µM | 7.66 µM | > 10000 nM
C[C@H]1CCCN1c1ccc(Cn2cc(C(=O)NCc3ccc4c(N)nccc4c3)c(C(F)(F)F)n2)cn1 [Example 62, 1-[6-((S)-2-Methyl-pyrrolidin-1-yl)-pyridin-3-ylmethyl]-3-trifluoromethyl-1H-pyrazole-4-carboxylic acid (1-amino-isoquinolin-6-ylmethyl)-amide] | 0.0136 µM | > 10 µM | > 10000 nM
C[C@@H]1CCCN1c1ccc(Cn2cc(C(=O)NCc3ccc4c(N)nccc4c3)c(C(F)(F)F)n2)cn1 [Example 63, 1-[6-((R)-2-Methyl-pyrrolidin-1-yl)-pyridin-3-ylmethyl]-3-trifluoromethyl-1H-pyrazole-4-carboxylic acid (1-amino-isoquinolin-6-ylmethyl)-amide] | 0.0123 µM | 5.7 µM | > 10000 nM
C[C@@H]1CCN(c2cc(Cn3cc(C(=O)NCc4ccc5c(N)nccc5c4)c(C(F)(F)F)n3)ccn2)C1 [Example 67, 1-[2-((R)-3-Methyl-pyrrolidin-1-yl)-pyridin-4-ylmethyl]-3-trifluoromethyl-1H-pyrazole-4-carboxylic acid (1-amino-isoquinolin-6-ylmethyl)-amide] | 0.108 µM | 8.88 µM | > 10000 nM
C[C@H]1CCN(c2cc(Cn3cc(C(=O)NCc4ccc5c(N)nccc5c4)c(C(F)(F)F)n3)ccn2)C1 [Example 68, 1-[2-((S)-3-Methyl-pyrrolidin-1-yl)-pyridin-4-ylmethyl]-3-trifluoromethyl-1H-pyrazole-4-carboxylic acid (1-amino-isoquinolin-6-ylmethyl)-amide] | 0.059 µM | 9.76 µM | > 10000 nM
